# Experimental data from patent US4895863A, “Novel imidazo[2,1-B]benzothiazoles” (Roussel Uclaf, priority 1987, dated 1990).
# Biological target: benzodiazepine receptors
# Assay: Affinity for benzodiazepine receptors: inhibition of specific binding of 3H-labelled flunitrazepam in rat rear brain membranes
# Set-up: species or system rats
# Conditions: inhibition of 50% of specific binding of 0.6×10^-9 mol 3H-flunitrazepam; membranes from rear portion of rat brain
# Procedure: The affinity of the active ingredients for benzodiazepine receptors was measured using a radioactively labelled (^3 H) compound flunitrazepam in a modified version of the method of Squires et al [Nature, (1977), Vol. 266, p. 732]. The values given in Table 2 below are the concentration (mol×10^-9) of the compound under test which inhibited 50% of the specific binding of 0.6×10^-9 mol of ^3 H-labelled flunitrazepam in preparations of membrances from the rear portion of the brain in rats (IC50 values).
row,SMILES,IC50
1,O=C(c1cn2c(n1)sc1ccccc12)C1CC1 [Example 2],20 nM
2,"COc1ccc2c(c1)sc1nc(C(=O)C3CC3)cn12 [Example 1, (7-Methoxy-imidazo[2,1-b]benzothiazol-2-yl)-cyclopropylmethanone]",2.5 nM
3,"O=C(c1cn2c(n1)sc1cc(OCc3ccccc3)ccc12)C1CC1 [Example 4, (7-benzyloxy-imidazo[2,1-b]-benzothiazol-2-yl) cyclopropyl-methanone]",3.2 nM
4,"O=C(c1cn2c3c(sc2n1)CCCC3)C1CC1 [Example 6, (5,6,7,8-tetrahydro-imidazo[2,1-b]benzothiazol-2-yl) cyclopropyl-methanone]",79 nM
5,O=C(c1cn2c(n1)sc1cc3c(cc12)OCO3)C1CC1 [Example 5],158 nM

# The next lines start with the values.
row,IC50,SMILES
1,6.3 nM,"CC(C)Oc1ccc2c(c1)sc1nc(C(=O)C3CC3)cn12 [Example 7, (7-isopropoxy-imidazo[2,1-b]benzothiazol-2-yl) cyclopropyl-methanone]"
2,60 nM,Cc1cc2sc3nc(C(=O)C4CC4)cn3c2cc1C [Example 8]
